Patent US20230414735A1, “NEOANTIGENS AND METHODS OF THEIR USE” (priority 2016, published 2023)
Where no end group is shown, it is not given here.

Each compound was assayed against HLA class I molecule (assay: HLA class I peptide binding affinity assay (inhibition of 125I-radiolabeled probe peptide binding to purified HLA)). Settings: allele A02.01; read-out: Observed Affinity (IC50; (nM)).
Set-up: species or system human
Experimental: Epstein-Barr virus (EBV)-transformed homozygous cell lines, fibroblasts, CIR, or 721.22 transfectants are used as sources of HLA class I molecules. […] HLA molecules are purified from lysates by affinity chromatography. The lysates are passed over a column of Sepharose CL-4B beads coupled to an appropriate antibody. […] A 1/25 volume of 2.0 M Tris, pH 6.8, is added to the eluate to reduce the pH to […]. Eluates are then concentrated by centrifugation in Centriprep 30 concentrators (Amicon, Beverly, MA). Protein content is evaluated by a BCA protein assay (Pierce Chemical Co., Rockford, IL) and confirmed by SDS-PAGE.
Following incubation, MHC-peptide complexes are separated from free peptide by gel filtration on 7.8 mm×15 cm TSK200 columns (TosoHaas 16215, Montgomeryville, PA). Because the large size of the radiolabeled peptide used for the DRB1*1501 (DR2w2(31) assay makes separation of bound from unbound peaks more difficult under these conditions, all DRB1*1501 (DR2w2(31) assays were performed using a 7.8 mm×30 cm TSK2000 column eluted at 0.6 mLs/min. The eluate from the TSK columns is passed through a Beckman 170 radioisotope detector, and radioactivity is plotted and integrated using a Hewlett-Packard 3396A integrator, and the fraction of peptide bound is determined.
Radiolabeled peptides are iodinated using the chloramine-T method. […] All subsequent inhibition and direct binding assays are performed using these HLA concentrations.
Since under these conditions [label]<[HLA] and IC50≥[HLA], the measured IC50 values are reasonable approximations of the true KD values. […] For database purposes, and inter-experiment comparisons, relative binding values are compiled. These values can subsequently be converted back into IC50 nM values by dividing the IC50 nM of the positive controls for inhibition by the relative binding of the peptide of interest.
HLA binding assays were used to evaluate either the affinity of interaction of a given epitope with a selected HLA molecule or the stability.
The measurements are plotted against the predicted affinity in FIG. 1.

| Compound | IC50 [nM] |
| --- | --- |
| FKLFSCLSFL | 663 |
| YIIIEFMTYG | 186 |
| YMANGSLLN | 4440 |
| TLQRSSLWCL | 118 |
| QQQSDLQPPA | 646 |
| ALQPLQPHA | 604 |
| VMSDTTYKI | 19.6 |
| FELLSTPPL | 225 |
| KQWSSVTSL | 26.5 |
| PLSDLLLEML | 6470 |
| IIIEFMTYG | 779 |
| LATEKSRWS | 61000 |
| CC[C@H](C)[C@H](N)C(=O)N[C@H](C(=O)N[C@H](C(=O)N[C@@H](CCC(=O)O)C(=O)N[C@@H](Cc1ccccc1)C(=O)N[C@@H](CCSC)C(=O)N[C@H](C(=O)N[C@@H](Cc1ccc(O)cc1)C(=O)NCC(=O)N[C@@H](CC(N)=O)C(=O)O)[C@@H](C)O)[C@@H](C)CC)[C@@H](C)CC | 1550 |
| YLGNHMNIAN | 1340 |
| SLVRLSSCV | 29.9 |
| LIMQLMPFG | 3510 |

| Compound | IC50 [nM] |
| --- | --- |
| MLTGPPARV | 10.6 |
| HMNIANLLGA | 430 |
| ALWECSLPQA | 9 |
| STVQLIMQL | 8540 |
| TQISSATEYL | 2640 |
| YITAFFLLDI | 64.5 |
| MSVCFFFFSV | 1710 |
| FELLPIPPL | 553 |
| CC(C)C[C@H](NC(=O)[C@H](CO)NC(=O)[C@H](CCCCN)NC(=O)[C@H](CC(C)C)NC(=O)[C@@H](NC(=O)[C@H](CO)NC(=O)[C@@H]1CCCN1C(=O)[C@H](CC(C)C)NC(=O)[C@@H](N)Cc1ccccc1)[C@@H](C)O)C(=O)O | 21 |
| ILIRKAMTV | 19.5 |
| LLDILDTAGL | 716 |
| LATEKSRWSG | 23300 |
| NVVPLYGLL | 10500 |
| ALEEKKGNYV | 141 |
| GLSISCTTL | 114 |

Results, then the compound that gave them:

| IC50 [nM] | Compound |
| --- | --- |
| 471 | ALFFFFFET |
| 2550 | VVPLSDLLL |
| 797 | PLYGLLLEML |
| 1130 | GMNWRPILT |
| 503 | NSFEVHVCA |
| 781 | AFSGEYIPTV |
| 7320 | IMSLWGLVS |
| 1370 | NVVPLCDLLL |
| 718 | LQVTQTSFAL [LQVTQTSFAL] |
| 677 | LLQVTQTSFA |
| 323 | LLYITAFFLL |
| 2900 | NVVPLNDLL |
| 1090 | IIEYCFYGDL |
| 289 | KKLMLLRLNL |
| 0.4 | FALCGFWQI |
| 61.2 | FFFETKSCSV |
| 3030 | GMNQRPILT |
| 741 | NVVPLSDLLL |
| 50300 | LQEFDVQEAL [LQEFDVQEAL] |
| 59 | ALAPTLTHM |
| 1210 | VRLSSCVPVA |
| 50.9 | RLWHLLLQVT |

Same assay, conditions: allele B08.01; read-out: Observed Affinity (IC50; (nM))

| Compound | IC50 [nM] |
| --- | --- |
| LKKLRSPL | 0.6 |
| FELLSTPPL | 3180 |
| LATEKSRWS | 37000 |
| CC(C)C[C@H](NC(=O)[C@H](CO)NC(=O)[C@H](CCCCN)NC(=O)[C@H](CC(C)C)NC(=O)[C@@H](NC(=O)[C@H](CO)NC(=O)[C@@H]1CCCN1C(=O)[C@H](CC(C)C)NC(=O)[C@@H](N)Cc1ccccc1)[C@@H](C)O)C(=O)O | 1970 |
| LATEKSRWSG | 46600 |

The compounds below were run on HLA Class I molecules (assay: HLA class I binding stability assay (pMHC-I complex dissociation, 125I-labeled β2m, scintillation counts)). Settings: allele A02.01; 37° C.
Set-up: species or system human

| Stability (T1/2 (h)) [h] | Compound |
| --- | --- |
| 9.5 | CC(C)C[C@H](NC(=O)[C@@H](N)Cc1ccccc1)C(=O)N[C@@H](CCC(N)=O)C(=O)N[C@@H](CCC(=O)O)C(=O)N[C@@H](CCC(N)=O)C(=O)N[C@@H](Cc1ccc(O)cc1)C(=O)N[C@@H](Cc1c[nH]cn1)C(=O)N[C@@H](CCC(=O)O)C(=O)N[C@@H](C)C(=O)O |
| 17 | CC[C@H](C)[C@H](NC(=O)[C@H](Cc1ccc(O)cc1)NC(=O)[C@H](CC(C)C)NC(=O)[C@@H](N)CC(C)C)C(=O)N[C@H](C(=O)N[C@@H](C)C(=O)N[C@@H](Cc1ccccc1)C(=O)N[C@@H](Cc1ccccc1)C(=O)N[C@@H](CC(C)C)C(=O)O)[C@@H](C)O |
| 4 | CC(C)C[C@H](NC(=O)[C@H](CO)NC(=O)[C@H](CS)NC(=O)[C@H](CCC(=O)O)NC(=O)[C@H](Cc1c[nH]c2ccccc12)NC(=O)[C@H](CC(C)C)NC(=O)[C@H](C)NC(=O)[C@H](CC(C)C)NC(=O)[C@@H](N)CC(C)C)C(=O)O |
| 0.5 | CC[C@H](C)[C@H](NC(=O)[C@@H](NC(=O)[C@H](CC(C)C)NC(=O)[C@@H](NC(=O)[C@@H]1CCCN1C(=O)[C@H](CCCNC(=N)N)NC(=O)[C@H](Cc1c[nH]c2ccccc12)NC(=O)[C@H](CC(N)=O)NC(=O)[C@H](CCSC)NC(=O)CN)[C@@H](C)CC)[C@@H](C)O)C(=O)O |

| Compound | Stability (T1/2 (h)) [h] |
| --- | --- |
| CC(C)C[C@H](NC(=O)[C@@H]1CCCN1C(=O)[C@H](CS)NC(=O)[C@H](CC(C)C)NC(=O)[C@H](Cc1c[nH]cn1)NC(=O)[C@H](CC(N)=O)NC(=O)CNC(=O)[C@H](CC(C)C)NC(=O)[C@@H](N)CO)C(=O)O | 3.5 |

Same assay, conditions: allele A02.01; pMHC-I dissociation at 37° C.

| Stability (T1/2 (h)) [h] | Compound |
| --- | --- |
| 0.4 | CSCC[C@H](NC(=O)[C@H](CC(C)C)NC(=O)[C@H](CCC(N)=O)NC(=O)[C@@H](N)CCSC)C(=O)N1CCC[C@H]1C(=O)N[C@@H](Cc1ccccc1)C(=O)NCC(=O)N[C@@H](CS)C(=O)N[C@@H](CC(C)C)C(=O)N[C@@H](CC(C)C)C(=O)O |

Same assay, conditions: allele B07.02; 37° C.

| Stability (T1/2 (h)) [h] | Compound |
| --- | --- |
| 6.5 | CSCC[C@H](NC(=O)[C@H](Cc1c[nH]c2ccccc12)NC(=O)[C@H](Cc1c[nH]cn1)NC(=O)[C@H](CC(N)=O)NC(=O)[C@H](CCCNC(=N)N)NC(=O)[C@H](CCCNC(=N)N)NC(=O)[C@H](CCC(N)=O)NC(=O)[C@H](CO)NC(=O)[C@@H]1CCCN1C(=O)[C@@H](N)CC(C)C)C(=O)O |

Same assay, conditions: allele B08.01; 37° C.

| Compound | Stability (T1/2 (h)) [h] |
| --- | --- |
| CSCC[C@H](NC(=O)[C@H](Cc1c[nH]c2ccccc12)NC(=O)[C@H](Cc1c[nH]cn1)NC(=O)[C@H](CC(N)=O)NC(=O)[C@H](CCCNC(=N)N)NC(=O)[C@H](CCCNC(=N)N)NC(=O)[C@H](CCC(N)=O)NC(=O)[C@H](CO)NC(=O)[C@@H]1CCCN1C(=O)[C@@H](N)CC(C)C)C(=O)O | 0.7 |
| CC(C)C[C@H](NC(=O)[C@@H]1CCCN1C(=O)[C@H](CS)NC(=O)[C@H](CC(C)C)NC(=O)[C@H](Cc1c[nH]cn1)NC(=O)[C@H](CC(N)=O)NC(=O)CNC(=O)[C@H](CC(C)C)NC(=O)[C@@H](N)CO)C(=O)O | 0.5 |
